Assay results reported in patent US10294230B2, “3,3-difluoropiperidine carbamate heterocyclic compounds as NR2B NMDA receptor antagonists” (Rugen Holdings (Cayman) Limited, priority 2015, dated 2019).

Tests used:
NR2B receptor = NR2B receptor (Rattus norvegicus (Rat), UniProt P35439+Q00960); assay: [3H] (E)-N1-(2-methoxybenzyl)-cinnamidine radioligand binding, rat brain membranes
Protocol: This example describes NMDA receptor binding assays using two different radioligands, [^3H] […] An established binding assay using the non-selective NMDA receptor ligand [^3H] […] The binding assay method using the NR2B selective receptor ligand [^3H] […] This assay serves as a selective measure of NR2B receptor binding activity in native rat brain receptors. Briefly, the brains of Male Wistar rats were homogenized (Polytron) before centrifugation at 40,000×g for 15 minutes at 4° C. After 2 washes, the final pellet was homogenized and stored at −80° C. The protein concentration was determined by Bradford assay.
[^3H] […] Thus, using [^3H]
Test compounds were solubilized at 10 mM in DMSO. Then the dilutions were performed with a constant solvent concentration (1% DMSO) in the assay.
After incubation for 4.5 h at room temperature, the assays were filtered on GF/B filters pretreated with 0.3% (v/v) PEI with a Brandel system for [^3H] […] The experiment was performed in duplicate (n=2).

CYP2D6 = CYP2D6 (Homo sapiens (Human), UniProt P10635); assay: CYP P450 enzyme inhibition, pooled human liver microsome; type: in vitro ADME; conditions: 10 μM, pooled HLM, dextromethorphan 5 μM
CYP2D6, sequence (P10635 whole entry): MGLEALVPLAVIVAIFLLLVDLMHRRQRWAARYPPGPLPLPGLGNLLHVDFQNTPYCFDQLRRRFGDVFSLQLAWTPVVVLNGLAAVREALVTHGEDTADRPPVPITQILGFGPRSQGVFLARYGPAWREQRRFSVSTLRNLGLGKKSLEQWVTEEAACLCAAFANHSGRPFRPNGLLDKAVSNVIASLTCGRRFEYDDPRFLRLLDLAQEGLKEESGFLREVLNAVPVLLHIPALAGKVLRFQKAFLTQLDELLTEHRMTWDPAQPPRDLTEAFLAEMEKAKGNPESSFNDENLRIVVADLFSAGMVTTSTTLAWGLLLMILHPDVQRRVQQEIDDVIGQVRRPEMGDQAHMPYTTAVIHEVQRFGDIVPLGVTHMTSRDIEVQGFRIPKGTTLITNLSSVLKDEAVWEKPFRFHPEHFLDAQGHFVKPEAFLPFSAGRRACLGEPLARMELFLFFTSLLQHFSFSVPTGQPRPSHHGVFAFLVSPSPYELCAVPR
Protocol: Those CYP isoforms and their corresponding probe substrates are as follows: CYP1A2 (phenacetin, 30 μM), CYP2C9 (tolutamide, 100 μM), CYP2C19 (S-mephenytoin, 40 μM), CYP2D6 (dextromethorphan, 5 μM) and CYP3A4 (midazolam, 1 μM). All probe substrates were used at concentrations near or below their Kms. For experiment, a reaction mixture of test compound at 10 μM or in serial dilution, CYP probe substrate described above and 0.2 mg/mL pooled HLM in phosphate buffer, pH 7.4 in a final volume of 200 μL was pre-incubated at 37° C. for 10 minutes in triplicate. The reaction was initiated by addition of NADPH at final concentration of 1 mM. The reaction was terminated after 10 minutes (CYP1A2, CYP2D6 and CYP3A4) or 30 minutes (CYP2C9 and CYP2C19) by addition of 100 μL ice-cold acetonitrile with internal standard (IS). The samples were then centrifuged at 13,000 rpm and the supernatants were injected to LC-MS/MS (Agilent Technologies) to quantify the concentration of the specific metabolites of the probe substrates formed by individual CYP450 isoforms. The inhibition ratio is calculated as: (Mt−M0)/Mwater×100% in which Mt and M0 represent the concentrations of the specific probe substrate metabolite, which was formed by individual CYP450 isoform, at the beginning and end of the reaction in the presence of test compound; while Mwater represents the concentration of the specific metabolite at the end of the reaction in the absence of test compound. Test compound concentration-dependent response data experiments performed in triplicate.

[1] = test system: pentylenetetrazole (PTZ) induced convulsions; assay: Pentylenetetrazole (PTZ) Seizure Test; type: in vivo; conditions: 10 mg/kg p.o., mesylate salt
Protocol: Rats, placed in individual macrolon cages (25×19×13 cm), were injected with pentylenetetrazole (PTZ) (100 mg/kg s.c.). The occurrence and latency of clonic and tonic convulsions and death were noted over a 30 minute period. 15 rats were studied per group. The test was performed blind. […]
Compounds were evaluated typically using 0.5% dimethylsulfoxide, 4% hydroxypropyl-b-cyclodextrin water as a vehicle at 1 or more doses (e.g., 1, 3 and 10 mg/kg), administered p.o. 30 minutes before PTZ, and compared with a vehicle control group. Diazepam (16 mg/kg p.o.), administered 60 minutes before PTZ, was used as reference substance. The experiment was performed over 2 separate sub-experiments with N=7 to 8 animals per group and per sub-experiment. Quantitative data (latencies) with the test substance was analyzed by comparing treated groups with vehicle control using Kruskal-Wallis test followed by Mann-Whitney U test. Quantitative data with the reference substance was analyzed using Mann-Whitney U test. Quantal data (frequencies) was analyzed by comparing treated groups with vehicle control using Fisher's Exact Probability tests (*=p<0.05; **=p<0.01; ***=p<0.001).

[2] = test system: 6 Hz electrically induced seizures; assay: 6 Hz Seizure Test; type: in vivo; conditions: for forelimb seizure score, change vs vehicle control: mice
Protocol: Mice were administered a rectangular current (44 mA, rectangular pulse: 0.2 ms pulse width, 3 s duration, 6 Hz) via corneal electrodes connected to a constant current shock generator (Ugo Basile: type 7801). The results for the number of seizures as reflected by forelimb clonus were recorded during the first minute following current administration. Forelimb clonus was scored as absent (0), mild (1) and strong (2). 15 mice were studied per group. The test was performed partially blind (test substance vs vehicle). […] Quantitative data (scores) with the test substance was analyzed by comparing treated groups with vehicle control using Kruskall-Wallis test followed by Mann-Whitney U tests.

[3] = test system: haloperidol-induced catalepsy; assay: Haloperidol-Induced Catalepsy (HIC) Model; type: in vivo; conditions: rats
From the text: The Haloperidol-induced Catalepsy (HIC) model detects antipsychotic activity and the action of NR2B selective antagonists (Steece-Collier et al. Exp. Neurol. 163: 239, 2000) and was based on methods described by Chermat and Simon (J. Pharmacol., 6, 493-496, 1975). The capacity to induce catalepsy serves as an index of the liability of a test substance to induce extrapyramidal side-effects, in particular Parkinsonism. Antagonism of antipsychotic-induced catalepsy can thus serve to detect anti-Parkinson potential.
Rats were injected with haloperidol (1 mg/kg i.p.) and were examined for catalepsy at 30 minute intervals up to 360 minutes. Presence (+) or absence (−) of catalepsy was assessed by three procedures: 1) imposed crossing of the ipsilateral fore- and hind-limbs; 2) placing the animal in the Buddha position; 3) the tilting board, an automatic device that, 5 seconds after positioning the rat, displaces the rat from a horizontal to vertical position and back while it clings to a wire grid with its front paws. Akinesia and catalepsy were assessed depending on whether or not the animal moves before (akinesia) or during operation of the board (catalepsy).
The 4 scores were cumulated over time to give a global catalepsy score per animal. Six rats were studied per group. The test was performed blind (test substances versus vehicle). Test substances were evaluated at 1 or more doses, administered typically using 0.5% dimethylsulfoxide, 4% hydroxypropyl-b-cyclodextrin water as a vehicle p.o. 15 minutes before haloperidol (i.e. 45 minutes before the first measurement), and compared with a vehicle control group.
Amphetamine (8 mg/kg p.o.), administered 60 minutes before the test (i.e. 90 minutes before the first measurement), was used as reference substance. Data with the test substances were analyzed by comparing treated groups with vehicle control using Kruskal-Wallis Test followed by Mann-Whitney U tests at each time and for cumulated score. Data with the reference substance were analyzed using Mann-Whitney U tests.

NR2B receptor, sequence (Q00960 27-1482, other chains not shown): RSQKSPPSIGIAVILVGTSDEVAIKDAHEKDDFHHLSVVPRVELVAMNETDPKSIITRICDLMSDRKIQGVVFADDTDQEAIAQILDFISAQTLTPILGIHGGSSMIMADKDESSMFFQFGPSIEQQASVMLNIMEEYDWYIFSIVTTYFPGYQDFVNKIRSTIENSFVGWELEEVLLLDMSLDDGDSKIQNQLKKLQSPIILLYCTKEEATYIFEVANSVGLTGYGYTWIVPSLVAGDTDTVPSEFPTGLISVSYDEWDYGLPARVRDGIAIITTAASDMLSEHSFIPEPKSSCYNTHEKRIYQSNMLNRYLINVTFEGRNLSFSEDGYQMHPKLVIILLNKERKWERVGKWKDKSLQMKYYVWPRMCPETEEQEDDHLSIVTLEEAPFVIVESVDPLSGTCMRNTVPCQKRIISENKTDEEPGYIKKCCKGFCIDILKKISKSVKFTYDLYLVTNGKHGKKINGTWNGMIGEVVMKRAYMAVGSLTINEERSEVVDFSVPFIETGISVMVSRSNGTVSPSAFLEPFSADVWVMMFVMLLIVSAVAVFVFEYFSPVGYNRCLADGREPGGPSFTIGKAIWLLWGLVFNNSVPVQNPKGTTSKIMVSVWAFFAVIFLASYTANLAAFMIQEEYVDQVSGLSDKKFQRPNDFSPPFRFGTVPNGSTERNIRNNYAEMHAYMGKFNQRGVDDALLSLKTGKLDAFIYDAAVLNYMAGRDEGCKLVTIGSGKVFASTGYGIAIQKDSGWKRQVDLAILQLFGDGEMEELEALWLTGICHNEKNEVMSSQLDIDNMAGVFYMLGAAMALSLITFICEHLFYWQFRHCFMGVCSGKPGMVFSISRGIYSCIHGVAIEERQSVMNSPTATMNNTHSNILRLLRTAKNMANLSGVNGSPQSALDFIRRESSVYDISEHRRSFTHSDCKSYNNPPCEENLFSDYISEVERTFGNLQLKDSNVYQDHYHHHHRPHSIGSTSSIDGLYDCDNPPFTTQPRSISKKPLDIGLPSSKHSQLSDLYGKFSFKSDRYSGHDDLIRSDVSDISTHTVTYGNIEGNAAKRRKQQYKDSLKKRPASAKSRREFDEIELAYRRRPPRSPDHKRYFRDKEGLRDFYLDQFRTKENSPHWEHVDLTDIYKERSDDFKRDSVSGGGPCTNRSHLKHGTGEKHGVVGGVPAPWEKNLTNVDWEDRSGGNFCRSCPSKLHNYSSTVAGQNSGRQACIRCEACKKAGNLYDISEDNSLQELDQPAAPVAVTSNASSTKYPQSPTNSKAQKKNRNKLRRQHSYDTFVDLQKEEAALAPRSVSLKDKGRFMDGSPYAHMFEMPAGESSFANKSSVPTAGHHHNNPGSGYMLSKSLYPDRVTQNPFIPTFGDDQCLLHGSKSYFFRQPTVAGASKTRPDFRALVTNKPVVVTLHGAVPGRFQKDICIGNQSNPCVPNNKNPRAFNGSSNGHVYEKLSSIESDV

Cc1ccc(COC(=O)N2CC[C@H](CNc3nccn4cnnc34)C(F)(F)C2)cc1 [Compound E1-1.2, (+)-R-4-methylbenzyl 4-(([1,2,4]triazolo[4,3-a]pyrazin-8-ylamino)methyl)-3,3-difluoropiperidine-1-carboxylate]
displacement of [3H] (E)-N1-(2-methoxybenzyl)-cinnamidine at the NR2B receptor high affinity site (NR2B receptor; rat brain membranes): 96% | Ki (NR2B receptor; read-out: Ki at the NR2B receptor high affinity site): 5.23 nM | CYP2D6 @ 10 μM (%) (CYP2D6): 14% | number of rats showing tonic convulsions, change vs vehicle controls [1]: −82% | latency to clonic convulsions, change vs vehicle controls ([1]; rats): +72% | latency to death, change vs vehicle controls ([1]; rats): +35% | latency to tonic convulsions, change vs vehicle controls ([1]; rats): +39% | number of deaths, change vs vehicle controls ([1]; rats): −91% | number of mice with Straub tail, change vs vehicle control ([2]; 10 mg/kg p.o., NS): −13% | number of mice with Straub tail, change vs vehicle control ([2]; 30 mg/kg p.o.): −40% | forelimb seizure score, change vs vehicle control ([2]; 10 mg/kg p.o. 30 minutes before the test): −50% | forelimb seizure score, change vs vehicle control ([2]; 30 mg/kg p.o. 30 minutes before the test): −70% | cumulated score of catalepsy over 360 mins ([3]; 1 mg/kg p.o.): 17.0 | cumulated score of catalepsy over 360 mins ([3]; 3 mg/kg p.o.): 15.8 | cumulated score of catalepsy over 360 mins ([3]; p.o., dose not printed in the sentence (other doses 1 and 3 mg/kg)): 2.0
